In patent US11554171B2, “Compounds and methods for the targeted degradation of bromodomain-containing proteins” (Arvinas Operations, Inc., priority 2015, dated 2023):

System: c-myc in 22RV-1 cells
Assay: Human c-myc ELISA assay
Type: cell-based
Conditions: Homo sapiens; for Emax: 22Rv1, 18 h, read-out: Degradation of BRD4: Maximum inhibition (%) c-Myc ELISA in 22RV1 cells; for DC50: 22Rv1, read-out: Degradation of BRD4: DC50 (uM) c-Myc ELISA in 22RV1 cells
In short: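 22RV-1 cells treated 18 h with 8-point 1:3 compound dilutions (final top 300 nM or 1 μM, 0.1% DMSO). Cells lysed in RIPA buffer with protease/phosphatase inhibitors, and c-myc protein in cleared lysate quantified by ELISA against a standard curve. DC50 reported for c-myc suppression.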

Structure (SMILES)	DC50 [µM]	Emax [%]
Cc1sc2c(c1C)C(c1ccc(Cl)cc1)=N[C@@H](CC(=O)N[C@H]1C[C@H](Oc3ccc(CC(=O)N[C@H](C(=O)N4C[C@H](O)C[C@H]4C(=O)N[C@H](C)c4ccc(S(C)(=O)=O)cc4)C(C)(C)C)cc3)C1)c1nnc(C)n1-2 [Example 308]	> 1	21
Cc1ncsc1-c1ccc(CNC(=O)[C@@H]2C[C@@H](O)CN2C(=O)[C@H](c2cc(OCCN3CC[C@H](NC(=O)C[C@@H]4N=C(c5ccc(Cl)cc5)c5c(sc(C)c5C)-n5c(C)nnc54)C3)no2)C(C)C)cc1 [Example 309]	> 1	18
Cc1ncsc1-c1ccc(CNC(=O)[C@@H]2C[C@@H](O)CN2C(=O)[C@@H](c2cc(OCCN3CC[C@H](NC(=O)C[C@@H]4N=C(c5ccc(Cl)cc5)c5c(sc(C)c5C)-n5c(C)nnc54)C3)no2)C(C)C)cc1 [Example 310]	< 0.01	94
Cc1ncsc1-c1ccc([C@H](C)NC(=O)[C@@H]2C[C@@H](O)CN2C(=O)[C@@H](NC(=O)COCCCN2CCN(C(=O)C[C@@H]3N=C(c4ccc(Cl)cc4)c4c(sc(C)c4C)-n4c(C)nnc43)CC2)C(C)(C)C)cc1 [Example 313]	0.01 to 0.1	87.5
Cc1ncsc1-c1ccc(CNC(=O)[C@@H]2C[C@@H](O)CN2C(=O)[C@@H](c2cc(OCCN3CCC(NC(=O)C[C@@H]4N=C(c5ccc(Cl)cc5)c5c(sc(C)c5C)-n5c(C)nnc54)CC3)no2)C(C)C)cc1 [Example 314]	< 0.01	87
Cc1ncsc1-c1ccc(CNC(=O)[C@@H]2C[C@@H](O)CN2C(=O)[C@H](c2cc(OCCN3CCC(NC(=O)C[C@@H]4N=C(c5ccc(Cl)cc5)c5c(sc(C)c5C)-n5c(C)nnc54)CC3)no2)C(C)C)cc1 [Example 315]	> 1	11.4
Cc1ncsc1-c1ccc(CNC(=O)[C@@H]2C[C@@H](O)CN2C(=O)[C@H](c2cc(OCCO[C@H]3C[C@@H](NC(=O)C[C@@H]4N=C(c5ccc(Cl)cc5)c5c(sc(C)c5C)-n5c(C)nnc54)C3)no2)C(C)C)cc1 [Example 316]	0.01 to 0.1	71.4
Cc1ncsc1-c1ccc(CNC(=O)[C@@H]2C[C@@H](O)CN2C(=O)[C@@H](c2cc(OCCO[C@H]3C[C@@H](NC(=O)C[C@@H]4N=C(c5ccc(Cl)cc5)c5c(sc(C)c5C)-n5c(C)nnc54)C3)no2)C(C)C)cc1 [Example 317]	< 0.01	89.9
Cc1ncsc1-c1ccc([C@H](C)NC(=O)[C@@H]2C[C@@H](O)CN2C(=O)[C@@H](NC(=O)CCOCCN2CCN(C(=O)C[C@@H]3N=C(c4ccc(Cl)cc4)c4c(sc(C)c4C)-n4c(C)nnc43)CC2)C(C)(C)C)cc1 [Example 318]	0.1 to 1	79
Cc1ncsc1-c1ccc([C@H](C)NC(=O)[C@@H]2C[C@@H](O)CN2C(=O)[C@@H](NC(=O)CCCCC(=O)N2CCN(C(=O)C[C@@H]3N=C(c4ccc(Cl)cc4)c4c(sc(C)c4C)-n4c(C)nnc43)CC2)C(C)(C)C)cc1 [Example 319]	0.1 to 1	78.5
Cc1ncsc1-c1ccc([C@H](C)NC(=O)[C@@H]2C[C@@H](O)CN2C(=O)[C@H](C(C)C)n2cc(-c3ccc(N4CCN(C(=O)C[C@@H]5N=C(c6ccc(Cl)cc6)c6c(sc(C)c6C)-n6c(C)nnc65)CC4)nc3)cn2)cc1 [Example 320]	< 0.01	97.8
Cc1ncsc1-c1ccc([C@H](C)NC(=O)[C@@H]2C[C@@H](O)CN2C(=O)[C@@H](C(C)C)n2cc(-c3ccc(N4CCN(C(=O)C[C@@H]5N=C(c6ccc(Cl)cc6)c6c(sc(C)c6C)-n6c(C)nnc65)CC4)nc3)cn2)cc1 [Example 321]	0.1 to 1	56
Cc1ncsc1-c1ccc([C@H](C)NC(=O)[C@@H]2C[C@@H](O)CN2C(=O)[C@H](C(C)C)n2cc(-c3ccnc(N4CCN(C(=O)C[C@@H]5N=C(c6ccc(Cl)cc6)c6c(sc(C)c6C)-n6c(C)nnc65)CC4)c3)cn2)cc1 [Example 322]	< 0.01	92.6
Cc1ncsc1-c1ccc([C@H](C)NC(=O)[C@@H]2C[C@@H](O)CN2C(=O)[C@@H](C(C)C)n2cc(-c3ccnc(N4CCN(C(=O)C[C@@H]5N=C(c6ccc(Cl)cc6)c6c(sc(C)c6C)-n6c(C)nnc65)CC4)c3)cn2)cc1 [Example 323]	> 1	43
Cc1ncsc1-c1ccc(CNC(=O)[C@@H]2C[C@@H](O)CN2C(=O)[C@H](c2cc(Oc3ccc(O[C@H]4C[C@@H](NC(=O)C[C@@H]5N=C(c6ccc(Cl)cc6)c6c(sc(C)c6C)-n6c(C)nnc65)C4)nc3)no2)C(C)C)cc1 [Example 324]	> 1	31.6

More lines, main results first:

DC50 [µM]	Structure (SMILES)	Emax [%]
0.01 to 0.1	Cc1ncsc1-c1ccc(CNC(=O)[C@@H]2C[C@@H](O)CN2C(=O)[C@@H](c2cc(Oc3ccc(O[C@H]4C[C@@H](NC(=O)C[C@@H]5N=C(c6ccc(Cl)cc6)c6c(sc(C)c6C)-n6c(C)nnc65)C4)nc3)no2)C(C)C)cc1 [Example 325]	81.5
0.01 to 0.1	Cc1ncsc1-c1ccc([C@H](C)NC(=O)[C@@H]2C[C@@H](O)CN2C(=O)[C@@H](NC(=O)Cc2cccc(C(=O)N3CCN(C(=O)C[C@@H]4N=C(c5ccc(Cl)cc5)c5c(sc(C)c5C)-n5c(C)nnc54)CC3)c2)C(C)(C)C)cc1 [Example 326]	92
< 0.01	Cc1ncsc1-c1ccc([C@H](C)NC(=O)[C@@H]2C[C@@H](O)CN2C(=O)[C@@H](NC(=O)COc2ccnc(N3CCN(C(=O)C[C@@H]4N=C(c5ccc(Cl)cc5)c5c(sc(C)c5C)-n5c(C)nnc54)CC3)c2)C(C)(C)C)cc1 [Example 327, (2S,4R)-1-[(2S)-2-(2-{[2-(4-{2-[(9S)-7-(4-chlorophenyl)-4,5,13-trimethyl-3-thia-1,8,11,12-tetraazatricyclo[8.3.0.0^2,^6]trideca-2(6),4,7,10,12-pentaen-9-yl]acetyl}piperazin-1-yl)pyridin-4-yl]oxy}acetamido)-3,3-dimethylbutanoyl]-4-hydroxy-N-[(1S)-1-[4-(4-methyl-1,3-thiazol-5-yl)phenyl]ethyl]pyrrolidine-2-carboxamide]	96
0.1 to 1	Cc1ncsc1-c1ccc([C@H](C)NC(=O)[C@@H]2C[C@@H](O)CN2C(=O)[C@@H](NC(=O)COC[C@H](O)CN2CCN(C(=O)C[C@@H]3N=C(c4ccc(Cl)cc4)c4c(sc(C)c4C)-n4c(C)nnc43)CC2)C(C)(C)C)cc1 [Example 328]	61
> 1	Cc1ncsc1-c1ccc([C@H](C)NC(=O)[C@@H]2C[C@@H](O)CN2C(=O)[C@@H](NC(=O)COC[C@@H](O)CN2CCN(C(=O)C[C@@H]3N=C(c4ccc(Cl)cc4)c4c(sc(C)c4C)-n4c(C)nnc43)CC2)C(C)(C)C)cc1 [Example 329]	< 5
0.01 to 0.1	Cc1ncsc1-c1ccc([C@H](C)NC(=O)[C@@H]2C[C@@H](O)CN2C(=O)[C@@H](NC(=O)COc2ccnc(N3CCN(C(=O)C[C@@H]4N=C(c5ccc(Cl)cc5)c5c(sc(C)c5C)-n5c(C)nnc54)CC3)n2)C(C)(C)C)cc1 [Example 330]	89
0.1 to 1	Cc1ncsc1-c1ccc([C@H](C)NC(=O)[C@@H]2C[C@@H](O)CN2C(=O)[C@@H](NC(=O)COc2nccc(N3CCN(C(=O)C[C@@H]4N=C(c5ccc(Cl)cc5)c5c(sc(C)c5C)-n5c(C)nnc54)CC3)n2)C(C)(C)C)cc1 [Example 331]	81.5
0.1 to 1	Cc1ncsc1-c1ccc([C@H](C)NC(=O)[C@H]2C[C@H](O)CN2C(=O)[C@@H](NC(=O)c2cc3cc(O[C@H]4C[C@@H](NC(=O)C[C@@H]5N=C(c6ccc(Cl)cc6)c6c(sc(C)c6C)-n6c(C)nnc65)C4)ccc3o2)C(C)(C)C)cc1 [Example 332]	61
0.01 to 0.1	Cc1ncsc1-c1ccc([C@H](C)NC(=O)[C@@H]2C[C@@H](O)CN2C(=O)[C@@H](NC(=O)CN2CCC(N3CCCN(C(=O)C[C@@H]4N=C(c5ccc(Cl)cc5)c5c(sc(C)c5C)-n5c(C)nnc54)CC3)CC2)C(C)(C)C)cc1 [Example 333]	88
< 0.01	Cc1ncsc1-c1ccc([C@H](C)NC(=O)[C@@H]2C[C@@H](O)CN2C(=O)[C@@H](NC(=O)CN2CCC(C(=O)N3CCN(C(=O)C[C@@H]4N=C(c5ccc(Cl)cc5)c5c(sc(C)c5C)-n5c(C)nnc54)CC3)CC2)C(C)(C)C)cc1 [Example 334]	97
< 0.01	Cc1ncsc1-c1ccc([C@H](C)NC(=O)[C@@H]2C[C@@H](O)CN2C(=O)[C@@H](NC(=O)CN2CCC(N3CCN(C(=O)C[C@@H]4N=C(c5ccc(Cl)cc5)c5c(sc(C)c5C)-n5c(C)nnc54)CC3)CC2)C(C)(C)C)cc1 [Example 335]	97
< 0.01	Cc1ncsc1-c1ccc([C@H](C)NC(=O)[C@@H]2C[C@@H](O)CN2C(=O)[C@@H](NC(=O)c2cc3cc(O[C@H]4C[C@@H](NC(=O)C[C@@H]5N=C(c6ccc(Cl)cc6)c6c(sc(C)c6C)-n6c(C)nnc65)C4)ccc3o2)C(C)C)cc1 [Example 336]	98
< 0.01	Cc1ncsc1-c1ccc([C@H](C)NC(=O)[C@@H]2C[C@@H](O)CN2C(=O)[C@@H](NC(=O)Cc2ccc(-c3cn(CCNC(=O)C[C@@H]4N=C(c5ccc(Cl)cc5)c5c(sc(C)c5C)-n5c(C)nnc54)cn3)cc2)C(C)(C)C)cc1 [Example 337]	96.4
< 0.01	Cc1ncsc1-c1ccc([C@H](C)NC(=O)[C@@H]2C[C@@H](OC(=O)[C@@H](N)C(C)C)CN2C(=O)[C@@H](NC(=O)c2cc3cc(O[C@H]4C[C@@H](NC(=O)C[C@@H]5N=C(c6ccc(Cl)cc6)c6c(sc(C)c6C)-n6c(C)nnc65)C4)ccc3o2)C(C)(C)C)cc1 [Example 338]	100
< 0.01	Cc1ncsc1-c1ccc([C@H](C)NC(=O)[C@@H]2C[C@@H](OC(=O)CCN)CN2C(=O)[C@@H](NC(=O)c2cc3cc(O[C@H]4C[C@@H](NC(=O)C[C@@H]5N=C(c6ccc(Cl)cc6)c6c(sc(C)c6C)-n6c(C)nnc65)C4)ccc3o2)C(C)(C)C)cc1 [Example 339]	97
